Assay [1] relates to lipid peroxidation of hepatic microsomal membranes. The assay can be described thus: In vitro antioxidant activity (TBARS test), Method B (2.5 μM FeSO4). In kind it is biochemical, rat. To be noted: inhibition of TBARS production, read-out: Antioxidant activity IC50 μM (CL 95%). As for the experimental part:
The antioxidant properties of compounds (6) (disclosed in example 1) and compound (23) (disclosed in example 19) and reference antioxidant compounds were assessed after NADPH-induced lipidic peroxidation of membrane lipids in rat hepatocytes using the detection of 2-thiobarbituric acid reactive substances (TBARS) by visible spectroscopy. Hepatic microsomal membranes from male Wistar rats (200-250 g) were prepared by differential centrifugation (8000 g, 20 min; 120000 g, 1 h) in a HEPES/sucrose buffer (10 mM, 250 mM, pH 7.4) and stored at −80° C. Incubation was performed at 37° C. in a Tris-HCl/KCl (100 mM/150 mM, pH 7.4) containing microsomal membranes (2 mg prot/mL), sodium ascorbate (100 μM), and DMSO solutions of the tested compounds. Lipid peroxidation was initiated by adding ADP-FeCl3 and NADPH (Method A) or 2.5 μM FeSO4 (Method B) (as described by Boschi D. et al., J. Med. Chem. 2006, 49:2886-2897). Aliquots were taken from the incubation mixture at 5, 15, and 30 min and treated with trichloroacetic acid (TCA) 10% w/v. Lipid peroxidation was assessed by spectrophotometric (543 nm) determination of the TBARS consisting mainly of malondialdehyde (MDA). TBARS concentrations (expressed in nmol/mg protein) were obtained by interpolation with a MDA standard curve. […] IC50 values were calculated by nonlinear regression analysis.

The subject of assay [2] is NADPH-induced lipidic peroxidation of membrane lipids (hepatic microsomal membranes). Briefly: In vitro antioxidant activity (TBARS test), Method A (ADP-FeCl3 and NADPH). The format is biochemical, rat. The note with it: inhibition of TBARS production after 30 min incubation, read-out: Antioxidant activity IC50 μM (CL 95%). How it is done:
The antioxidant properties of compounds (6) (disclosed in example 1) and compound (23) (disclosed in example 19) and reference antioxidant compounds were assessed after NADPH-induced lipidic peroxidation of membrane lipids in rat hepatocytes using the detection of 2-thiobarbituric acid reactive substances (TBARS) by visible spectroscopy.
Hepatic microsomal membranes from male Wistar rats (200-250 g) were prepared by differential centrifugation (8000 g, 20 min; 120000 g, 1 h) in a HEPES/sucrose buffer (10 mM, 250 mM, pH 7.4) and stored at −80° C. Incubation was performed at 37° C. in a Tris-HCl/KCl (100 mM/150 mM, pH 7.4) containing microsomal membranes (2 mg prot/mL), sodium ascorbate (100 μM), and DMSO solutions of the tested compounds. Lipid peroxidation was initiated by adding ADP-FeCl3 and NADPH (Method A) or 2.5 μM FeSO4 (Method B) (as described by Boschi D. et al., J. Med. Chem. 2006, 49:2886-2897). Aliquots were taken from the incubation mixture at 5, 15, and 30 min and treated with trichloroacetic acid (TCA) 10% w/v. Lipid peroxidation was assessed by spectrophotometric (543 nm) determination of the TBARS consisting mainly of malondialdehyde (MDA). TBARS concentrations (expressed in nmol/mg protein) were obtained by interpolation with a MDA standard curve. The antioxidant activity of tested compounds was evaluated as the percent inhibition of TBARS production with respect to control samples, using the values obtained after 30 min of incubation. IC50 values were calculated by nonlinear regression analysis.

Assay [3] deals with lipid peroxidation of hepatic microsomal membranes. The note with it: Method B; values from Chegaev, K. et al. (footnotes a, b); read-out: Antioxidant activity IC50 μM (CL 95%); cited from earlier work.

SMILES strings stand for the structures. Where two headings read alike, the source gives them in different places.

With `O=C(O)/C=C/c1ccc(O)c(O)c1` [Caffeic acid], in assay [1], the concentration for half-maximal inhibition (IC50) (usually the midpoint of a concentration-inhibition curve) was determined as 33 µM. For the compound `CC1=C(CCCCCCO[N+](=O)[O-])C(=O)c2ccccc2C1=O` [Compound (23), 6-(3-methyl-1,4-dioxo-1,4-dihydronaphthalen-2-yl) hexyl nitrate], the IC50 in assay [2] was found to be 1.4 µM.

Regarding `CC1=NN(c2ccccc2)C(=O)C1` [Edavarone], the half-maximal inhibitory concentration (IC50) in assay [3] is 17 µM. For `COC1=C(OC)C(=O)C(CCCCCCCCCCO)=C(C)C1=O` [Idebenone, reference compound], in assay [2], the 50% inhibitory concentration (IC50) was found to be 1.6 µM. Consider `COc1ccc2[nH]cc(CCNC(C)=O)c2c1` [Melatonin], for which, in assay [3], the IC50 is 476 µM.
